Results reported in US20110268789A1, “USE OF PITUITARY ADENYLATE CYCLASE-ACTIVATING POLYPEPTIDE (PACAP) AND PACAP ANALOGS AS ADJUNCTIVE TREATMENTS WITH ANTICANCER AGENTS” (priority 2008, published 2011).
Square brackets hold non-standard residues; d marks the D form. Ends that are not written are not given here.

Legend:
[1] = tested on: Jurkat human T-lymphocyte leukemia cells; assay: Etoposide-induced apoptotic cell death of leukemia cells; type: cell-based; conditions: Jurkat cells
Description: The Jurkat human T-lymphocyte leukemia cells were cultured in RPMI 1640 medium supplemented with 10% non-inactivated fetal bovine serum. The effects of PACAP27 and PACAP38 on apoptotic cell death was assessed by the quantitative determination of cytoplasmic histone-associated DNA-fragmentation (mono- and oligonucleosomes) after exposure to etoposide for 48 hours. Each value represents the mean plus/minus the standard deviation of three determinations. **p<0.01 and *p<0.05 compared to the etoposide-treated (control) cells.

L-132 human lung cells = assay: Bleomycin-induced apoptotic cell death of human pulmonary epithelial cells; type: cell-based; conditions: L-132 cells, peptide added to the medium, FIG. 12
Description: The L-132 human lung cells were cultured in Eagle's Minimum Essential Medium supplemented with 10% fetal bovine serum. […] Each value represents the mean plus/minus the standard deviation of four determinations in three replicate experiments. **p<0.01 and *p<0.05 compared to the bleomycin-treated (control) cells.
At the highest dose tested (10^−6 M), all three peptides reduced the apoptotic cell death of these epithelial cells by more than 60%. […] Therefore, pre- and/or post-treatment of subjects undergoing bleomycin-based cancer chemotherapy with therapeutic doses of PACAP38 and/or PACAP analogs should result in a higher maximal tolerable dose of bleomycin, and an increased frequency of partial clinical responses and/or an increased number of complete remissions.

[2] = tested on: PC-12 rat pheochromocytoma cells; assay: Cisplatin-induced apoptotic cell death of pheochromocytoma cells; type: cell-based; conditions: PC-12 cells
Description: The PC-12 rat pheochromocytoma cells were cultured in F-12K medium supplemented with 15% horse serum and 2.5% fetal bovine serum. The dose-dependent inhibitory effects of PACAP38 and the PACAP38 analogs on apoptotic cell death were assessed by the quantitative determination of cytoplasmic histone-associated DNA-fragmentation (mono- and oligonucleosomes) after exposure to cisplatin for 24 hours. Each value represents the mean plus/minus the standard error of four determinations. **p<0.01 and *p<0.05 compared to the cisplatin-treated (control) cells.

HK-2 human kidney cells [3] = assay: Doxorubicin-induced apoptotic cell death of human renal proximal tubule epithelial cells; type: cell-based; conditions: HK-2 cells, peptide added to the medium, FIG. 11
Description: The HK-2 human kidney cells were cultured in Keratinocyte-Serum Free Medium supplemented with recombinant epidermal growth factor and bovine pituitary extract. […] Each value represents the mean plus/minus the standard deviation of four determinations in three replicate experiments. **p<0.01 and *p<0.05 compared to the doxorubicin-treated (control) cells.
At the highest dose tested (10^−6 M), all three peptides reduced the apoptotic cell death of these epithelial cells by more than 60%.

Male C57BL/6 mice = assay: Cisplatin-induced nephrotoxicity in mice; type: in vivo, mouse; conditions: cisplatin 20 mg/kg i.p., FIG. 10
Description: (§1) Male C57BL/6 mice were given a single intraperitoneal injection of 20 mg/kg of cisplatin. Twenty nanomoles of PACAP38 were given intraperitoneally 1 hour before the injection of cisplatin and additional doses were given at 24 and 48 hours after the initial dose. The control group of mice was injected intraperitoneally with the same volume of saline as for the injections of cisplatin and PACAP38 on the same schedule. The mice were euthanized 24 hours after the final injection of PACAP38. Each value represents the mean plus/minus the standard error of four determinations. ***p<0.001 and **p<0.01 compared to the group treated only with cisplatin.
as §1, with “PACAP38. TNF-α was extracted from one kidney of each mouse and quantified with an enzyme-linked immunosorbent assay.” for “PACAP38.”
Male C57BL/6 mice were given a single intraperitoneal injection of 20 mg/kg of cisplatin. Twenty nanomoles of PACAP38 were given intraperitoneally 1 hour before the injection of cisplatin and additional doses were given at 24 and 48 hours after the initial dose. The control group of mice were injected intraperitoneally with the same volume of saline as for the injections of cisplatin and PACAP38 on the same schedule. The mice were euthanized 24 hours after the final injection of PACAP38, and the kidneys were removed and fixed in 10% formalin. The fixed sections were stained with hematoxylin and eosin. The sections of the kidneys from control mice show intact renal tubular epithelial cells and well-preserved brush border membranes. The kidneys from mice treated with cisplatin had extensive tubular damage, tubular dilations, intratubular debris, and intratubular casts. […] Tubular damage was more pronounced in the outer cortex in the cisplatin treated mice. The photomicrographs on the left side were made at a lower magnification (×160) than the photomicrographs on the right side (×320). The results described in FIGS. 5, 6, 7, and 8 were from the same experiment.
as §1, with “six” for “four”
as §1, with “The cytoprotective effect of PACAP38 against cisplatin-induced nephrotoxicity was also seen in a common in vivo model. Male” for “Male”, “PACAP38.” for “PACAP38. Each value represents the mean plus/minus the standard error of four determinations. ***p<0.001 and **p<0.01 compared to the group treated only with cisplatin.”

[4] = tested on: light-chain immunoglobulin-secreting human myeloma cells; assay: Doxorubicin-induced apoptotic cell death of myeloma cells; type: cell-based
Description: (§2) The light-chain immunoglobulin-secreting human myeloma cells were cultured in RPMI 1640 medium supplemented with 10% non-inactivated fetal bovine serum and 0.05 mM 2-mercaptoethanol. The effects of PACAP38, and [Ala^16,17,D-Lys^38]PACAP38 on apoptotic cell death was assessed by the quantitative determination of cytoplasmic histone-associated DNA-fragmentation (mono- and oligonucleosomes) after exposure to doxorubicin for 48 hours. Each value represents the mean plus/minus the standard deviation of three determinations. **p<0.01 and *p<0.05 compared to the doxorubicin-treated (control) cells.
At the lowest dose tested (10^−8 M), both peptides reduced the doxorubicin-induced apoptotic cell death of these malignant plasma cells.

[5] = rat, in vivo, iv; cited from earlier work
[6] = tested on: MCF-7 human breast cancer cells; assay: Doxorubicin-induced apoptotic cell death of breast cancer cells; type: cell-based; conditions: MCF-7 cells
Description: The MCF-7 human breast cancer cells were cultured in Eagle's Minimum Essential Medium supplemented with 10% non-inactivated fetal bovine serum and 0.05 mM 2-mercaptoethanol. The effects of PACAP38 and N-acetyl[Ala^16,17,D-Lys^38]PACAP38 on apoptotic cell death were assessed by the quantitative determination of cytoplasmic histone-associated DNA-fragmentation (mono- and oligonucleosomes) after exposure to doxorubicin for 48 hours. Each value represents the mean plus/minus the standard deviation of three determinations. **p<0.01 compared to the doxorubicin-treated (control) cells.
At the highest dose tested (10^−6 M), both peptides reduced the apoptotic cell death of these breast cancer cells by more than 50%.

HK-2 human kidney cells [7] = assay: Cisplatin-induced apoptotic cell death of human renal proximal tubule epithelial cells (histone-associated DNA fragmentation); type: cell-based; conditions: HK-2 cells, comparable concentrations, FIG. 4
Description: (§3) The HK-2 human kidney cells were cultured in Keratinocyte-Serum Free Medium supplemented with recombinant epidermal growth factor and bovine pituitary extract. The dose-dependent inhibitory effect of PACAP38 on apoptotic cell death was assessed by the quantitative determination of cytoplasmic histone-associated DNA-fragmentation (mono- and oligonucleosomes) after exposure to cisplatin for 24 hours. Each value represents the mean plus/minus the standard error of four determinations in three replicate experiments. **p<0.01 compared to the cisplatin-treated (control) cells.
as §3, with “deviation” for “error”, “different” for “replicate”, “**p<0.01 and *p<0.05” for “**p<0.01”

[8] = tested on: PC-3 human prostate cancer cells; conditions: nude mice, PC-3 cells; cited from earlier work
[9] = tested on: MCF-7 human breast cancer cells; conditions: nude mice, MCF-7 cells; cited from earlier work
[10] = tested on: NCI-H838 human non-small cell lung cancer cells; conditions: nude mice; cited from earlier work
[11] = tested on: light-chain immunoglobulin-secreting human myeloma cells; assay: Carmustine-induced apoptotic cell death of myeloma cells; type: cell-based
Description: as §2, with “[Ala^22]PACAP38” for “[Ala^16,17,D-Lys^38]PACAP38”, “carmustine” for “doxorubicin”, “carmustine-treated” for “doxorubicin-treated”

[12] = normal human volunteers and a patient with multiple myeloma; cited from earlier work
[13] = tested on: rat hippocampal neuron/glia co-cultures; conditions: cited from earlier work

## PACAP27 (HSDGIFTDSYSRYRKQMAVKKYLAAVL-NH2)
[1]; etoposide 48 hours, FIG. 15
  reduction in etoposide-induced apoptotic cell death: small reduction
[1]; highest dose tested 10^−6 M
  significance of the reduction of etoposide-induced apoptotic cell death: did not have a significant effect

## [Lys^34]PACAP38 (HSDGIFTDSYSRYRKQMAVKKYLAAVLGKRYKQKVKNK; ends and bridges not checked)
L-132 human lung cells
  reduction in bleomycin-induced apoptotic cell death: significant dose-dependent reduction
[2]; cisplatin 24 hours, FIG. 13
  reduction in cisplatin-induced apoptotic cell death: dose-dependent reduction
[2]; highest dose tested (10^−6 M)
  reduction of cisplatin-induced apoptotic cell death: significantly reduced
HK-2 human kidney cells [3]
  reduction in doxorubicin-induced apoptotic cell death: significant dose-dependent reduction

## [D-Ser^2,Lys^38-palmitoyl]PACAP38
Male C57BL/6 mice
  relative potency as cytoprotectants against cisplatin-induced impairment of kidney function (serum creatinine): less potent

## [Ala^16,Ala^17,D-Lys^38]PACAP38 (HSDGIFTDSYSRYRKAAAVKKYLAAVLGKRYKQRVKN[dK]; ends and bridges not checked) [[Ala^16,17,D-Lys^38]PACAP38]
[4]; doxorubicin 48 hours, FIG. 16
  effect on doxorubicin-induced apoptotic cell death (dose-response): biphasic dose-response effect
[4]; highest dose tested (10^−6 M)
  effect on doxorubicin-induced apoptotic cell death: small, but not significant, enhancement
[4]; lowest dose tested (10^−8 M)
  effect on doxorubicin-induced apoptotic cell death: reduced

## [^125I]-PACAP38
[5]
  half-life in the bloodstream: 5 to 6 min

## N-acetyl[Ala^16,17,D-Lys^38]PACAP38
[6]
  relative potency in reducing doxorubicin-induced apoptotic cell death: slightly more potent than PACAP38
[6]; doxorubicin 48 hours, FIG. 14
  reduction in doxorubicin-induced apoptotic cell death: dose-dependent reduction

## [Aib^2]PACAP38
HK-2 human kidney cells [7]
  relative effectiveness as protectants against cisplatin-induced apoptotic cell death: similarly effective

## PACAP(6-38) (FTDSYSRYRKQMAVKKYLAAVLGKRYKQRVKNK; ends and bridges not checked; UniProt P18509 137-169, looked up, fragment) [a PACAP/VIP receptor antagonist]
[8]
  growth of xenografts: inhibited the growth
[9]
  growth of xenografts: inhibited the growth
[10]
  growth of xenografts: inhibited the growth

## [Ala^22]PACAP38 (HSDGIFTDSYSRYRKQMAVKKALAAVLGKRYKQRVKNK; ends and bridges not checked)
[11]; carmustine 48 hours, FIG. 17
  effect on carmustine-induced apoptotic cell death: enhancement
[11]; highest dose tested (10^−6 M)
  effect on carmustine-induced apoptotic cell death: significantly enhanced

## pituitary adenylate cyclase-activating polypeptide [PACAP]
[12]
  untoward effect reported: transient flushing
[13]
  peak of bimodal dose-response curve for prevention of gp120-induced neuronal death (lower peak): 10^−13 M
  peak of bimodal dose-response curve for prevention of gp120-induced neuronal death (upper peak): 10^−10 M
